Source: US12679878B2, “CRF2 receptor agonists and their use in therapy” (SANOFI, priority 2020, dated 2026)
Starred links: 1 amine or outer side, 2 acyl side, 3 side chain; linkers in the order of their positions; H or OH if unused. Non-standard residues stand in square brackets, D forms with d. Residues, ends and D or L forms follow the SMILES beside them. Groups on a side chain read outwards from the residue. *: point of attachment. C18 diacid = O=C(O)CCCCCCCCCCCCCCCCC(=O)*; γGlu = O=C(O)[C@H](CCC(=O)[*:2])N[*:1]; AEEA = NCCOCCOCC(=O)O; Aib = CC(C)(N)C(=O)O

Test: Effect on blood pressure, telemetry (Example 17)
Format: in vivo
Settings: Sprague Dawley rats, 0.1 mg/kg SC
Procedure: The effect of the compounds on blood pressure was determined in telemetry studies in Sprague Dawley rats at a dosage of 0.1 mg/kg SC.
The rats were previously implanted with a telemetry device (DSI, Saint-Paul, USA, HD-S10, HD-S11 or HD S21) and allowed to recover for a minimum period of 2 weeks before treatment with vehicle or the different peptides. Blood pressure (BP) was recorded through a catheter inserted into the abdominal aorta. The device body was placed in the abdomen. At the end of surgery, animals were placed in individual cages until the end of the study.
Pressure signals were recorded for one hour before the treatment (basal period). Thereafter, the subcutaneous administration of the test compound or its vehicle was performed, under continuous recording of the signal over a 48-hour period. Data acquisition was performed using Hem 4.3 acquisition software (Notocord®, Le Pecq, France) connected to the telemetry device. Hemodynamic parameters were recorded during a […] before treatment and every 4-hour period following subcutaneous administration over 48 hours.
Investigated parameters (calculated from BP signal) were Heart Rate (HR) in beats per minute (bpm), Diastolic and Systolic Blood Pressure (DBP) in mmHg, and Mean Blood Pressure (MBP) in mmHg.
Data from Hem were manipulated using Microsoft Excel®. For each parameter, a basal value was determined as the average calculated over a 1-hour period during the pre-treatment sequence, and the values post treatment were calculated over 4-hour periods ([0-4], [4-8], [8-12], [12-16], [16-20], [20-24], [24-28], [32-36], [36-40], [40-44] and [44-48] hours) covering the 48-hour period following administration.
Representative data are presented in Table 15 below, in which “n” represents the number of animals for which individual values were obtained and “Duration” indicates the last time point for which a significant effect on BP was still seen: Table 15

CC[C@H](C)[C@H](N)C(=O)N[C@H](C(=O)N[C@@H](CC(C)C)C(=O)N[C@@H](CO)C(=O)N[C@@H](CC(C)C)C(=O)N[C@@H](CC(=O)O)C(=O)N[C@@H](C(=O)N1CCC[C@H]1C(=O)N[C@H](C(=O)N[C@@H](CCCCN)C(=O)N[C@@H](CC(C)C)C(=O)N[C@@H](CCCCNC(=O)COCCOCCNC(=O)COCCOCCNC(=O)CC[C@H](NC(=O)CCCCCCCCCCCCCCCCC(=O)O)C(=O)O)C(=O)N[C@@H](CCC(N)=O)C(=O)N[C@H](C(=O)N[C@@H](CC(C)C)C(=O)N[C@@H](CC(C)C)C(=O)N[C@@H](CCCCN)C(=O)N[C@@H](CCC(N)=O)C(=O)N[C@@H](CCC(=O)O)C(=O)N[C@@H](CCCNC(=N)N)C(=O)N[C@@H](CCC(N)=O)C(=O)N[C@@H](CCCCN)C(=O)NC(C)(C)C(=O)N[C@@H](CCC(N)=O)C(=O)N[C@@H](CCCNC(=N)N)C(=O)N[C@@H](CCC(=O)O)C(=O)N[C@@H](CCC(N)=O)C(=O)N[C@@H](C)C(=O)N[C@@H](CCC(=O)O)C(=O)N[C@@H](CCCCN)C(=O)N[C@@H](CC(N)=O)C(=O)N[C@@H](CCCCN)C(=O)N[C@@H](CCC(N)=O)C(=O)N[C@H](C(=O)N[C@@H](CC(C)C)C(=O)N[C@@H](C)C(=O)N[C@@H](CCC(N)=O)C(=O)N[C@H](C(N)=O)C(C)C)[C@@H](C)CC)[C@@H](C)CC)[C@@H](C)CC)C(C)C)C(C)C [SEQ ID NO: 130, IVLSLDvPIKLK*QILLKQERQKAibQREQAEKNKQILAQV-NH2] (H-IVLSLD[dV]PIKLK([AEEA-AEEA-γGlu-C18 diacid])QILLKQERQK[Aib]QREQAEKNKQILAQV-NH2)
Duration (h): last time point for which a significant effect on BP was still seen: 30 h | Effect on Systolic Pressure % change from baseline 8 h: −15.2% | Effect on Systolic Pressure % change from baseline 24 h: −9.9%

CC[C@H](C)[C@H](N)C(=O)N[C@H](C(=O)N[C@@H](CC(C)C)C(=O)N[C@@H](CO)C(=O)N[C@@H](CC(C)C)C(=O)N[C@@H](CC(=O)O)C(=O)N[C@@H](C(=O)N1CCC[C@H]1C(=O)N[C@H](C(=O)N[C@@H](CCCCN)C(=O)N[C@@H](CC(C)C)C(=O)N[C@@H](CCCCNC(=O)COCCOCCNC(=O)COCCOCCNC(=O)CC[C@H](NC(=O)CCCCCCCCCCCCCCCCC(=O)O)C(=O)O)C(=O)N[C@@H](CCC(N)=O)C(=O)N[C@H](C(=O)N[C@@H](CC(C)C)C(=O)N[C@@H](CC(C)C)C(=O)N[C@@H](CCCCN)C(=O)N[C@@H](CCC(N)=O)C(=O)N[C@@H](CCC(=O)O)C(=O)N[C@@H](CCCNC(=N)N)C(=O)N[C@@H](CCC(N)=O)C(=O)N[C@@H](CCCCN)C(=O)NC(C)(C)C(=O)N[C@@H](CCC(N)=O)C(=O)N[C@@H](CCCNC(=N)N)C(=O)N[C@@H](CCC(N)=O)C(=O)N[C@@H](CCC(N)=O)C(=O)N[C@@H](C)C(=O)N[C@@H](CCC(=O)O)C(=O)N[C@@H](CCCCN)C(=O)N[C@@H](CC(N)=O)C(=O)N[C@@H](CCCCN)C(=O)N[C@@H](CCC(N)=O)C(=O)N[C@H](C(=O)N[C@@H](CC(C)C)C(=O)N[C@@H](C)C(=O)N[C@@H](CCC(N)=O)C(=O)N[C@H](C(N)=O)C(C)C)[C@@H](C)CC)[C@@H](C)CC)[C@@H](C)CC)C(C)C)C(C)C [SEQ ID NO: 135, IVLSLDvPIKLK*QILLKQERQKAibQRQQAEKNKQILAQV-NH2] (H-IVLSLD[dV]PIKLK([AEEA-AEEA-γGlu-C18 diacid])QILLKQERQK[Aib]QRQQAEKNKQILAQV-NH2)
Duration (h): last time point for which a significant effect on BP was still seen: 30 h | Effect on Systolic Pressure % change from baseline 8 h: −8.8% | Effect on Systolic Pressure % change from baseline 24 h: −4.8%

CC[C@H](C)[C@H](N)C(=O)N[C@H](C(=O)N[C@@H](CC(C)C)C(=O)N[C@@H](CO)C(=O)N[C@@H](CC(C)C)C(=O)N[C@@H](CC(=O)O)C(=O)N[C@@H](C(=O)N1CCC[C@H]1C(=O)N[C@H](C(=O)N[C@@H](CCCCN)C(=O)N[C@@H](CC(C)C)C(=O)N[C@@H](CCCCNC(=O)COCCOCCNC(=O)COCCOCCNC(=O)CC[C@H](NC(=O)CCCCCCCCCCCCCCCCC(=O)O)C(=O)O)C(=O)N[C@@H](CCC(N)=O)C(=O)N[C@H](C(=O)N[C@@H](CC(C)C)C(=O)N[C@@H](CC(C)C)C(=O)N[C@@H](CCCCN)C(=O)N[C@@H](CCC(N)=O)C(=O)N[C@@H](CCC(=O)O)C(=O)N[C@@H](CCCNC(=N)N)C(=O)N[C@@H](CCC(N)=O)C(=O)N[C@@H](CCCCN)C(=O)N[C@@H](CCCCN)C(=O)N[C@@H](CCC(N)=O)C(=O)N[C@@H](CCCNC(=N)N)C(=O)N[C@@H](CCC(=O)O)C(=O)N[C@@H](CCC(N)=O)C(=O)N[C@@H](C)C(=O)N[C@@H](CCC(=O)O)C(=O)N[C@@H](CCCCN)C(=O)N[C@@H](CC(N)=O)C(=O)N[C@@H](CCCCN)C(=O)N[C@@H](CCC(N)=O)C(=O)N[C@H](C(=O)N[C@@H](CC(C)C)C(=O)N[C@@H](CCC(=O)O)C(=O)N[C@@H](CCC(N)=O)C(=O)N[C@H](C(N)=O)C(C)C)[C@@H](C)CC)[C@@H](C)CC)[C@@H](C)CC)C(C)C)C(C)C [SEQ ID NO: 137] (H-IVLSLD[dV]PIKLK([AEEA-AEEA-γGlu-C18 diacid])QILLKQERQKKQREQAEKNKQILEQV-NH2)
Duration (h): last time point for which a significant effect on BP was still seen: 28 h | Effect on Systolic Pressure % change from baseline 8 h: −15.9% | Effect on Systolic Pressure % change from baseline 24 h: −6.5%

CC[C@H](C)[C@H](N)C(=O)N[C@H](C(=O)N[C@@H](CC(C)C)C(=O)N[C@@H](CO)C(=O)N[C@@H](CC(C)C)C(=O)N[C@@H](CC(=O)O)C(=O)N[C@@H](C(=O)N1CCC[C@H]1C(=O)N[C@H](C(=O)N[C@@H](CCCCN)C(=O)N[C@@H](CC(C)C)C(=O)N[C@@H](CCCCNC(=O)COCCOCCNC(=O)COCCOCCNC(=O)CC[C@H](NC(=O)CCCCCCCCCCCCCCCCC(=O)O)C(=O)O)C(=O)N[C@@H](CCC(N)=O)C(=O)N[C@H](C(=O)N[C@@H](CC(C)C)C(=O)N[C@@H](CC(C)C)C(=O)N[C@@H](CCCCN)C(=O)N[C@@H](CCC(N)=O)C(=O)N[C@@H](CCC(=O)O)C(=O)N[C@@H](CCCNC(=N)N)C(=O)N[C@@H](CCC(N)=O)C(=O)N[C@@H](CCCCN)C(=O)N[C@@H](CCCCN)C(=O)N[C@@H](CCC(N)=O)C(=O)N[C@@H](CCCNC(=N)N)C(=O)N[C@@H](CCC(=O)O)C(=O)N[C@@H](CCCCN)C(=O)N[C@@H](C)C(=O)N[C@@H](CCC(=O)O)C(=O)N[C@@H](CCCCN)C(=O)N[C@@H](CC(N)=O)C(=O)N[C@@H](CCCCN)C(=O)N[C@@H](CCC(N)=O)C(=O)N[C@H](C(=O)N[C@@H](CC(C)C)C(=O)N[C@@H](C)C(=O)N[C@@H](CCC(N)=O)C(=O)N[C@H](C(N)=O)C(C)C)[C@@H](C)CC)[C@@H](C)CC)[C@@H](C)CC)C(C)C)C(C)C [SEQ ID NO: 138] (H-IVLSLD[dV]PIKLK([AEEA-AEEA-γGlu-C18 diacid])QILLKQERQKKQREKAEKNKQILAQV-NH2)
Duration (h): last time point for which a significant effect on BP was still seen: 30 h | Effect on Systolic Pressure % change from baseline 8 h: −6.1% | Effect on Systolic Pressure % change from baseline 24 h: −3.6%

CC[C@H](C)[C@H](N)C(=O)N[C@H](C(=O)N[C@@H](CC(C)C)C(=O)N[C@@H](CO)C(=O)N[C@@H](CC(C)C)C(=O)N[C@@H](CC(=O)O)C(=O)N[C@@H](C(=O)N1CCC[C@H]1C(=O)N[C@H](C(=O)N[C@@H](CCCCN)C(=O)N[C@@H](CC(C)C)C(=O)N[C@@H](CCCCNC(=O)COCCOCCNC(=O)COCCOCCNC(=O)CC[C@H](NC(=O)CCCCCCCCCCCCCCCCC(=O)O)C(=O)O)C(=O)N[C@@H](CCC(N)=O)C(=O)N[C@H](C(=O)N[C@@H](CC(C)C)C(=O)N[C@@H](CC(C)C)C(=O)N[C@@H](CCC(=O)O)C(=O)N[C@@H](CCC(N)=O)C(=O)N[C@@H](C)C(=O)N[C@@H](CCCNC(=N)N)C(=O)N[C@@H](CCC(N)=O)C(=O)N[C@@H](CCCCN)C(=O)NC(C)(C)C(=O)N[C@@H](CCC(N)=O)C(=O)N[C@@H](CCCNC(=N)N)C(=O)N[C@@H](C)C(=O)N[C@@H](CCC(N)=O)C(=O)N[C@@H](C)C(=O)N[C@@H](CCC(=O)O)C(=O)N[C@@H](CCCCN)C(=O)N[C@@H](CC(N)=O)C(=O)N[C@@H](CCCCN)C(=O)N[C@@H](CCCNC(=N)N)C(=O)N[C@H](C(=O)N[C@@H](CC(C)C)C(=O)N[C@@H](CCC(=O)O)C(=O)N[C@@H](CCCNC(=N)N)C(=O)N[C@H](C(N)=O)C(C)C)[C@@H](C)CC)[C@@H](C)CC)[C@@H](C)CC)C(C)C)C(C)C [SEQ ID NO: 140, IVLSLDvPIKLK*QILLEQARQKAibQRAQAEKNKRILERV-NH2] (H-IVLSLD[dV]PIKLK([AEEA-AEEA-γGlu-C18 diacid])QILLEQARQK[Aib]QRAQAEKNKRILERV-NH2)
Duration (h): last time point for which a significant effect on BP was still seen: 32 h | Effect on Systolic Pressure % change from baseline 8 h: −19.9% | Effect on Systolic Pressure % change from baseline 24 h: −3.0%
